Assay results as given in patent publication US20150359886A1, “SYSTEM AND METHODS FOR NANOSTRUCTURE PROTECTED DELIVERY OF TREATMENT AGENT AND SELECTIVE RELEASE THEREOF” (priority 2012, published 2015).

Assays:
[1] = tested on: L3.6 cells; assay type: cell-based; conditions: for cell death (killing) of pancreatic cancer cells: FIG. 2, single agents even at high doses, combination at relatively low dose; for concentration required for a comparable effect with the exogenously applied treatment: exogenously applied Taxol + C6-ceramide combination, no CNT carrier
Procedure: Human pancreatic cancer lines PANC-1, MIA PaCa-2 (MIA) and L3.6 cells culture, cell viability assay (MTT dye assay) and Western blots assay were performed as described in Cao, C., et al. Galpha(i1) and Galpha(i3) are required for epidermal growth factor-mediated activation of the Akt-mTORC1 pathway. Science signaling 2, ra17 (2009).
(§1) Accordingly, experiments were carried out to examine the magnitude of chemosensitization of C6-ceramide on Taxol in different cancer cell lines. The pancreatic cancer cell lines L3.6. PANC-1 and MIA PaCa-2 (MIA) cells were selected for this experiment.
Using same pancreatic cancer cells (L3.6), the inductive heating release was we next tested the on-commandinductive-heating release of the encapsulated chemotherapeutic agents (Taxol and C6-ceramide) from CNTs. The drug-loaded CNTs were added to L3.6 cells for 12 hours, allowing them to be taken up by the cells. The cells were then washed with fresh basal medium (DMEM) 5 times to remove residual CNTs from the media, and a 30 min a.c. magnetic field (25 kHz) was applied to these cells to release the encapsulated drugs (Taxol and C6-ceramide) present in CNTs within the cells. After 48 h, the release of the drugs was inferred and assessed by the degree of cell death.

[2] = tested on: PANC-1; assay: Cell viability assay (MTT dye assay), PANC-1 pancreatic cancer cells; assay type: cell-based, Human; conditions: for cell death (killing) of pancreatic cancer cells: FIG. 2, single agents even at high doses, combination at relatively low dose
Procedure: (§2) Science signaling 2, ra17 (2009).
as §1, with “experiment. […] However, the side effects noted above remain a challenging problem in this combination regimen and calls for a new delivery method.” for “experiment.”

[3] = tested on: MIA PaCa-2 (MIA); assay: Cell viability assay (MTT dye assay), MIA PaCa-2 pancreatic cancer cells; assay type: cell-based, Human; conditions: for cell death (killing) of pancreatic cancer cells: FIG. 2, single agents even at high doses, combination at relatively low dose
Procedure: as §2
as §1, with “experiment. […] However, the side effects noted above remain a challenging problem in this combination regimen and calls for a new delivery method.” for “experiment.”

[4] = sensitization of Taxol-induced cell death

Row | Structure (SMILES) | cell death (killing) of pancreatic cancer cells ([1]; L3.6) | concentration required for a comparable effect with the exogenously applied treatment [1] | cell death (killing) of pancreatic cancer cells [2] | cell death (killing) of pancreatic cancer cells [3] | concentration needed to reach the chemosensitization effect ([1]; L3.6, sensitization of Taxol-induced cell death) | concentration needed to reach the chemosensitization effect [2, 4] | concentration needed to reach the chemosensitization effect [3, 4]
1 | CC(=O)O[C@H]1C(=O)[C@@]2(C)[C@H]([C@H](OC(=O)c3ccccc3)[C@]3(O)C[C@H](OC(=O)[C@H](O)[C@@H](NC(=O)c4ccccc4)c4ccccc4)C(C)=C1C3(C)C)[C@]1(OC(C)=O)CO[C@@H]1C[C@@H]2O [Taxol, Paclitaxel] | limited killing | 3 µg/mL | limited killing | limited killing |  |  | 
2 | CCCCCCCCCCCCC/C=C/[C@@H](O)[C@H](CO)NC(=O)CCCCC [C6-ceramide] | limited killing | 10 µg/mL | limited killing | limited killing | 5-10 micrograms per milliliter | 5-10 micrograms per milliliter | 5-10 micrograms per milliliter
